Data: publication PMC9030254, “Target Hopping from Protein Kinases to PXR: Identification of Small-Molecule Protein Kinase Inhibitors as Selective Modulators of Pregnane X Receptor from TüKIC Library” (Cells, 2022)

Columns and labels:
Test in all cases: Kinase profiling
Format in all cases: biochemical
PKCdelta = target: T1, PKCdelta (Homo sapiens, UniProt Q05655)
T1 construct: purchased ProQinase (Freiburg, Germany)
Experimental: (§1) The analysis was performed by ProQinase (Freiburg, Germany).

DYRK1A = target: T2, DYRK1A (Homo sapiens, UniProt Q13627)
T2 construct: purchased ProQinase (Freiburg, Germany)
Experimental: as §1

MARK2 = target: T3, MARK2 (Homo sapiens, UniProt Q7KZI7)
T3 construct: purchased ProQinase (Freiburg, Germany)
Experimental: as §1

ZAK = target: T4, ZAK (Homo sapiens, UniProt Q9NYL2)
T4 construct: purchased ProQinase (Freiburg, Germany)
T4 sequence (Q9NYL2 whole entry): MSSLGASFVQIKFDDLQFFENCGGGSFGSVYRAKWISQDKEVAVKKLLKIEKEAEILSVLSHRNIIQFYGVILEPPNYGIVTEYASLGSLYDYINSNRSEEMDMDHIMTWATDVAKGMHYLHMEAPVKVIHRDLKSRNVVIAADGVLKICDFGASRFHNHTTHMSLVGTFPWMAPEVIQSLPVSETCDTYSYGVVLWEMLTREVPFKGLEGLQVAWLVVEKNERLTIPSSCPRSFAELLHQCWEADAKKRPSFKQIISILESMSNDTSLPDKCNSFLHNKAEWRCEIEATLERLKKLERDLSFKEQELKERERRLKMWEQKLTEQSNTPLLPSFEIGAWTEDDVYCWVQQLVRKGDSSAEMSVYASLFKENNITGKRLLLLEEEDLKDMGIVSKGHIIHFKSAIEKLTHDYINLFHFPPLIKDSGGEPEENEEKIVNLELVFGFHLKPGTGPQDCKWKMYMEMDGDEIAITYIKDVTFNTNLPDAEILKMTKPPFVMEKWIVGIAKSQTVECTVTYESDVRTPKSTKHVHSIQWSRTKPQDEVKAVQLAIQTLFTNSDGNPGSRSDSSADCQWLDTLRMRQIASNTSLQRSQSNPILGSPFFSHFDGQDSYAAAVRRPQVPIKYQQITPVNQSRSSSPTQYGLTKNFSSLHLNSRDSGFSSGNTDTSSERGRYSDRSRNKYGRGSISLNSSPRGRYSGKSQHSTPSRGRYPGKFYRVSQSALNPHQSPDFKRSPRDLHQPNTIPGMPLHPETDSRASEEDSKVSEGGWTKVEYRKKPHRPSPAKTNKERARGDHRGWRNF
Experimental: as §1

SYK = target: T5, SYK (Homo sapiens, UniProt P43405)
T5 construct: purchased ProQinase (Freiburg, Germany)
Experimental: as §1

STK39 = target: T6, STK39 (Homo sapiens, UniProt Q9UEW8)
T6 construct: purchased ProQinase (Freiburg, Germany)
Experimental: as §1

TAOK2 = target: T7, TAOK2 (Homo sapiens, UniProt Q9UL54)
T7 construct: purchased ProQinase (Freiburg, Germany)
T7 sequence (Q9UL54 1-1235): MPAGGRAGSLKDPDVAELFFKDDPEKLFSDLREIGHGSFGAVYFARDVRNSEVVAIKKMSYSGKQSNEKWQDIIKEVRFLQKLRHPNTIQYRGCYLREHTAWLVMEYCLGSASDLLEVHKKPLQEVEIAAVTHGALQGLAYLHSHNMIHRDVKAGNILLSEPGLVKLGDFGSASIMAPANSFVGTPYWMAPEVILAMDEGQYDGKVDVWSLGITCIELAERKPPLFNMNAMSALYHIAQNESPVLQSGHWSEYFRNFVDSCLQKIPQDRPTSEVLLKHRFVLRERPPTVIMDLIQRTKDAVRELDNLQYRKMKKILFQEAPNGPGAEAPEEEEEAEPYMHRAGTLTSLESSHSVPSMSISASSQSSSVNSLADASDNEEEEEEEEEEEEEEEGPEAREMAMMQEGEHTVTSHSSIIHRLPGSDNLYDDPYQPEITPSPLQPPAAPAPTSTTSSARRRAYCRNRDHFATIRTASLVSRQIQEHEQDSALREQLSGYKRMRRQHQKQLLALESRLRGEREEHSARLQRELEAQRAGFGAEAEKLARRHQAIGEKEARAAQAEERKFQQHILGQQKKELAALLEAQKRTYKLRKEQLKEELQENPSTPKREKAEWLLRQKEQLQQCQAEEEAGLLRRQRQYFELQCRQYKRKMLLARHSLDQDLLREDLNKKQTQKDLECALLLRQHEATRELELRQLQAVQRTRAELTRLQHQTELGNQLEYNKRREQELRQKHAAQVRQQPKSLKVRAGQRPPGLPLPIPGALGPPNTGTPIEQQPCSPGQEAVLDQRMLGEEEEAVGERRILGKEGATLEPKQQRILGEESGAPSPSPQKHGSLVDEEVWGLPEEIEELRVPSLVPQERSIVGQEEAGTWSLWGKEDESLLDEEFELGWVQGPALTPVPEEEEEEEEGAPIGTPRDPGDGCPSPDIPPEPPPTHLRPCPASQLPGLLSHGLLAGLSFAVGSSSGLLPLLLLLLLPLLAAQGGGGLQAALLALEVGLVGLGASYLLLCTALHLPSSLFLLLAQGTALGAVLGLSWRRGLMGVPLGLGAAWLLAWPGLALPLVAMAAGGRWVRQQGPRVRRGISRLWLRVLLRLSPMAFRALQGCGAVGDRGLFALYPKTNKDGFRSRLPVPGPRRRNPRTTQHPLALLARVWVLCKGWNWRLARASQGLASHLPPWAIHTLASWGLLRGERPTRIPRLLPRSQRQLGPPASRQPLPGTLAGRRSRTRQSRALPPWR
Experimental: as §1

WNK3 = target: T8, WNK3 (Homo sapiens, UniProt Q9BYP7)
T8 construct: purchased ProQinase (Freiburg, Germany)
T8 sequence (Q9BYP7 whole entry): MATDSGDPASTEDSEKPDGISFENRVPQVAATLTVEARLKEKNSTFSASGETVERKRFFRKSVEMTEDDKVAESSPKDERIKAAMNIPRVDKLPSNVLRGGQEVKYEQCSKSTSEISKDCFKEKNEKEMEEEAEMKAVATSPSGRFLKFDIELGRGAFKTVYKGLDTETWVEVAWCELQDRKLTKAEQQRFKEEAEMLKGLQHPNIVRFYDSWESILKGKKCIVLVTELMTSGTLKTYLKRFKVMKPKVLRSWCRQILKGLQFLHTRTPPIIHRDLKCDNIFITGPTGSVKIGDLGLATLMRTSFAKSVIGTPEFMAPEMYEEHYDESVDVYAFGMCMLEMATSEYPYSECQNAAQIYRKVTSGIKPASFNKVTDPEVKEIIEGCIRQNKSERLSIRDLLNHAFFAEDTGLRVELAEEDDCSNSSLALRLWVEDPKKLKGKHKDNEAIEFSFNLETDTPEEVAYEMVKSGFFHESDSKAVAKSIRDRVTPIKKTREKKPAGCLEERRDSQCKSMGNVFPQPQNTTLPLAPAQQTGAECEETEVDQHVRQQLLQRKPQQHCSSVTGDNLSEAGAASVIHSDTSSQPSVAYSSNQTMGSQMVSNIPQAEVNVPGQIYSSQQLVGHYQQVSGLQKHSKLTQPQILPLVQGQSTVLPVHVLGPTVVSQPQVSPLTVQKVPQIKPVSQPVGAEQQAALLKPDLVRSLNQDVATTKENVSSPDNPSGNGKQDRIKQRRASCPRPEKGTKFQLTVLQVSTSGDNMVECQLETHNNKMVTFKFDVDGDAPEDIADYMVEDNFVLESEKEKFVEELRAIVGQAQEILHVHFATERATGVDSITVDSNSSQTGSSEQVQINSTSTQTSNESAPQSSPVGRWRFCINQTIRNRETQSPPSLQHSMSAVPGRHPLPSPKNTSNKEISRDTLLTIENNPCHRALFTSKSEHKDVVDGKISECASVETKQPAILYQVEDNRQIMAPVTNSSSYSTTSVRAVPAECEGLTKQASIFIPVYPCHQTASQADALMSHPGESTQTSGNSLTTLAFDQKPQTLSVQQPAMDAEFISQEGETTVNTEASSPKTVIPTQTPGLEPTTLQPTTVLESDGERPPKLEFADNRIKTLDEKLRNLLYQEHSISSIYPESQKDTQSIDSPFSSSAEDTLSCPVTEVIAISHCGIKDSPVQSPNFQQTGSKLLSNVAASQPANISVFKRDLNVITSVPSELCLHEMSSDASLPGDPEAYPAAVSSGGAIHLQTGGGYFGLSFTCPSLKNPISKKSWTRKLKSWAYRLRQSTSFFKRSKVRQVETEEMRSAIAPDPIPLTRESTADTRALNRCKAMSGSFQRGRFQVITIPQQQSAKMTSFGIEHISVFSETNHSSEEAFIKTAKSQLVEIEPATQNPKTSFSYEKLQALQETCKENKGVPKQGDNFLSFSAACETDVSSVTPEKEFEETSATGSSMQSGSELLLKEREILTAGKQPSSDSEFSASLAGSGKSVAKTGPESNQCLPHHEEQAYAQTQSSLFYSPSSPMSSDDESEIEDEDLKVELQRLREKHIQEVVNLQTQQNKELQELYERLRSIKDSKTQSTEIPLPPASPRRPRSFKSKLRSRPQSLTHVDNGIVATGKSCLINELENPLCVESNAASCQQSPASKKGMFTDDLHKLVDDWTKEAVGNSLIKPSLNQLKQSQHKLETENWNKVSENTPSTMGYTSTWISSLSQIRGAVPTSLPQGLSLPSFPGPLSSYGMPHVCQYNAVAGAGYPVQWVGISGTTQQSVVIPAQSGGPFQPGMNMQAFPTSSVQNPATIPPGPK
Experimental: as §1

CLK2 = target: T9, CLK2 (Homo sapiens, UniProt P49760)
T9 construct: purchased ProQinase (Freiburg, Germany)
Experimental: as §1

CDK18/CycY = target: T10, CDK18/CycY (Homo sapiens, UniProt Q07002)
T10 construct: purchased ProQinase (Freiburg, Germany)
Experimental: as §1

MARK4 = target: T11, MARK4 (Homo sapiens, UniProt Q96L34)
T11 construct: purchased ProQinase (Freiburg, Germany)
T11 sequence (Q96L34 1-752): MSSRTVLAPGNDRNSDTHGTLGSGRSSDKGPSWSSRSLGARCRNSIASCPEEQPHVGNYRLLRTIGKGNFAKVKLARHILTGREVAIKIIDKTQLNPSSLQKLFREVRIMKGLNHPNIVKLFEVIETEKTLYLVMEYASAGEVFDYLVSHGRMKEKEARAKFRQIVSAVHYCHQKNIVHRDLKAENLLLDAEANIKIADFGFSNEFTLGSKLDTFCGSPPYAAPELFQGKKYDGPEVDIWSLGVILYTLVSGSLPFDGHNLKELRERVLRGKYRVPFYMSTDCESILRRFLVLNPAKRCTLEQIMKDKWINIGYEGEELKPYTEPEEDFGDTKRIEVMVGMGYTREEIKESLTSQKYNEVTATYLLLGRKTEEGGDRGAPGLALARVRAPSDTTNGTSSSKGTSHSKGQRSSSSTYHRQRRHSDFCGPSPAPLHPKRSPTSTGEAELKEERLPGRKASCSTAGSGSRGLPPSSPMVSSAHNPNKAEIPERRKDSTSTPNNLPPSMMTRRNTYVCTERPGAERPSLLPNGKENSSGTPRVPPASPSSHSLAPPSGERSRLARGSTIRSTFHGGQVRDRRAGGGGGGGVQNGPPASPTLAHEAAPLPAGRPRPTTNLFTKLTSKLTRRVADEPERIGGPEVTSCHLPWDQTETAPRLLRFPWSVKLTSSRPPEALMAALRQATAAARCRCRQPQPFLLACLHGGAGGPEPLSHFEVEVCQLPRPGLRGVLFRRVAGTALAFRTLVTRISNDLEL
Experimental: as §1

MAP3K10 = target: T12, MAP3K10 (Homo sapiens, UniProt Q02779)
T12 construct: purchased ProQinase (Freiburg, Germany)
T12 sequence (Q02779 whole entry): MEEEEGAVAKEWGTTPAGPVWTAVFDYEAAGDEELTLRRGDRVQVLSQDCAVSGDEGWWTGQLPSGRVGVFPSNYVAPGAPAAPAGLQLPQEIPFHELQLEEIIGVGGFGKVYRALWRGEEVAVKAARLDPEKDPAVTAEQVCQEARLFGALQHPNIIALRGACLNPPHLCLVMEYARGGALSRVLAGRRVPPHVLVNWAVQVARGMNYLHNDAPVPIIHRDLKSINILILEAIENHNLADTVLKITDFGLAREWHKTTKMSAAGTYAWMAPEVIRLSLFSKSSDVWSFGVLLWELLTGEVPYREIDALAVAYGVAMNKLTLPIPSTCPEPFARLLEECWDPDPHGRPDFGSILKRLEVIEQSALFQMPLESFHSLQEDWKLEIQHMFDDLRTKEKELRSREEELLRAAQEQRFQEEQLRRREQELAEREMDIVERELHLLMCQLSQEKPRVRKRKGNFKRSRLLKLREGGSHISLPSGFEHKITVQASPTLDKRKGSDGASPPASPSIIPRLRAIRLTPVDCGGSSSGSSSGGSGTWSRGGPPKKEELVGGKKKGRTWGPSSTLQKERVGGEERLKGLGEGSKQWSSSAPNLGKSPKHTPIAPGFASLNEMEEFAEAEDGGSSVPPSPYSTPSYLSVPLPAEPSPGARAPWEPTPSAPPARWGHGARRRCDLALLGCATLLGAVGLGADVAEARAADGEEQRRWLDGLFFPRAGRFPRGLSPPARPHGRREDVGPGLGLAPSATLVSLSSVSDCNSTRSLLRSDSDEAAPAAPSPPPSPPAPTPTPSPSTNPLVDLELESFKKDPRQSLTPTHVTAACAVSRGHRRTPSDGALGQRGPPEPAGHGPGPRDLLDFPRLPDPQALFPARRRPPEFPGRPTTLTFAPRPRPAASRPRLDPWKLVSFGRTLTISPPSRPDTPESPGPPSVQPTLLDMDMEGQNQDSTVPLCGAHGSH
Experimental: as §1

CAMK1D = target: T13, CAMK1D (Homo sapiens, UniProt Q8IU85)
T13 construct: purchased ProQinase (Freiburg, Germany)
Experimental: as §1

STK33 = target: T14, STK33 (Homo sapiens, UniProt Q9BYT3)
T14 construct: purchased ProQinase (Freiburg, Germany)
T14 sequence (Q9BYT3 whole entry): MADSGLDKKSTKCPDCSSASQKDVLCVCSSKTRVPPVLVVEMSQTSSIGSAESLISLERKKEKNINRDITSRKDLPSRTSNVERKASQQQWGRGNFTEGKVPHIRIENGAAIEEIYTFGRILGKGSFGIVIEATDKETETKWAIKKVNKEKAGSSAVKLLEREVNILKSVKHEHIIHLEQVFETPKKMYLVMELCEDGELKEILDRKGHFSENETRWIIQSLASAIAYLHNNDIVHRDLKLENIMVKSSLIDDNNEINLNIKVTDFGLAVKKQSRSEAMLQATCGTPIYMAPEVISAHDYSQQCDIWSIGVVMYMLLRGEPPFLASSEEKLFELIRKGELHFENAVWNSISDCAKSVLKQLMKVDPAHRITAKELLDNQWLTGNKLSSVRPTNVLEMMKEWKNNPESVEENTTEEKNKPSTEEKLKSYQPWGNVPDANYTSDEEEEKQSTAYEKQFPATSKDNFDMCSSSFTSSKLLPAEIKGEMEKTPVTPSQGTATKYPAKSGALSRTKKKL
Experimental: as §1

T1 sequence (Q05655 whole entry): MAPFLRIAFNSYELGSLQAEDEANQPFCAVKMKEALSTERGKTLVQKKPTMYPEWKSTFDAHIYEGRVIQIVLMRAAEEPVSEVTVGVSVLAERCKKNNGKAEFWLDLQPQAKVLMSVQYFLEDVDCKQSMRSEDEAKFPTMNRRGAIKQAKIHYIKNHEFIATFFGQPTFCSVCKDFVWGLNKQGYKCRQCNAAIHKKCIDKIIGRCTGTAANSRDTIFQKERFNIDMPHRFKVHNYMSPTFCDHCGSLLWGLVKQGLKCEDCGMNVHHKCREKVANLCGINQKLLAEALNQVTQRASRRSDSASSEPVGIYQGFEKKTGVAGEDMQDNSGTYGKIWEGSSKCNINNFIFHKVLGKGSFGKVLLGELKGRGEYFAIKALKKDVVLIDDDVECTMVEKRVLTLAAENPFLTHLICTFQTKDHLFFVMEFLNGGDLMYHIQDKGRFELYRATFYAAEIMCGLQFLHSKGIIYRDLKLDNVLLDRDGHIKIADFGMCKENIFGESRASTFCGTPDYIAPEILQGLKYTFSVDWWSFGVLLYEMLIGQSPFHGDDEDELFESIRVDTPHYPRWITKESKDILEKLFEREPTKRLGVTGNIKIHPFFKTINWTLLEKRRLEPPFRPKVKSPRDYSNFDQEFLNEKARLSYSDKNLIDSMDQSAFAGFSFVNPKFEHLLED

| Structure (SMILES) | Residual activity (PKCdelta; 1.0E-05 M) | Residual activity (PKCdelta; 1.0E-06 M) | Residual activity (DYRK1A; 1.0E-05 M) | Residual activity (DYRK1A; 1.0E-06 M) | Residual activity (MARK2; 1.0E-05 M) | Residual activity (MARK2; 1.0E-06 M) | Residual activity (ZAK; 1.0E-05 M) | Residual activity (ZAK; 1.0E-06 M) | Residual activity (SYK; 1.0E-05 M) | Residual activity (SYK; 1.0E-06 M) | Residual activity (STK39; 1.0E-05 M) | Residual activity (STK39; 1.0E-06 M) | Residual activity (TAOK2; 1.0E-05 M) | Residual activity (TAOK2; 1.0E-06 M) | Residual activity (WNK3; 1.0E-05 M) | Residual activity (WNK3; 1.0E-06 M) | Residual activity (CLK2; 1.0E-05 M) | Residual activity (CLK2; 1.0E-06 M) | Residual activity (CDK18/CycY; 1.0E-05 M) | Residual activity (CDK18/CycY; 1.0E-06 M) | further results |
| --- | --- | --- | --- | --- | --- | --- | --- | --- | --- | --- | --- | --- | --- | --- | --- | --- | --- | --- | --- | --- | --- |
| O=C(Cc1ccccc1)Nc1ccc(F)c(Nc2ccc3c(c2)CCCCC3=O)c1 [Compound 100] | 82 % of control | 98 % of control | 98 % of control | 92 % of control | 104 % of control | 103 % of control | 102 % of control | 109 % of control | 89 % of control | 105 % of control | 106 % of control | 108 % of control | 97 % of control | 90 % of control | 109 % of control | 107 % of control | 107 % of control | 117 % of control | 88 % of control | 93 % of control | Residual activity (MARK4; 1.0E-05 M): 94 % of control; Residual activity (MARK4; 1.0E-06 M): 99 % of control; Residual activity (MAP3K10; 1.0E-05 M): 84 % of control; Residual activity (MAP3K10; 1.0E-06 M): 106 % of control; Residual activity (CAMK1D; 1.0E-05 M): 88 % of control; Residual activity (CAMK1D; 1.0E-06 M): 85 % of control; Residual activity (STK33; 1.0E-05 M): 96 % of control; Residual activity (STK33; 1.0E-06 M): 109 % of control |
| O=C(Nc1ccc(F)c(Nc2ccc3c(c2)CCCCC3=O)c1)c1cccc(F)c1 [Compound 109] | 66 % of control | 107 % of control | 92 % of control | 92 % of control | 99 % of control | 107 % of control | 106 % of control | 106 % of control | 94 % of control | 95 % of control | 100 % of control | 90 % of control | 108 % of control | 104 % of control | 104 % of control | 93 % of control | 103 % of control | 112 % of control | 98 % of control | 91 % of control | Residual activity (MARK4; 1.0E-05 M): 91 % of control; Residual activity (MARK4; 1.0E-06 M): 102 % of control; Residual activity (MAP3K10; 1.0E-05 M): 91 % of control; Residual activity (MAP3K10; 1.0E-06 M): 96 % of control; Residual activity (CAMK1D; 1.0E-05 M): 89 % of control; Residual activity (CAMK1D; 1.0E-06 M): 93 % of control; Residual activity (STK33; 1.0E-05 M): 99 % of control; Residual activity (STK33; 1.0E-06 M): 93 % of control |
